Columns and labels:
[1] = test system: AKI-primed CD4+ cells; test: Fura-2 imaging of intracellular Ca2+ responses in AKI-primed CD4+ cells; type: cell-based, rat; details: superfusate with Ang II and elevated Na+; to levels similar to sham
Procedure: To assess Ca^2+ responses, fura2 imaging was performed. Briefly, isolated CD4+ T cells were loaded with fura-2AM (2.5 μM, Sigma, St. Louis, MO) for 45 min, washed, placed on poly-lysine (Sigma) coated coverslips and placed in a superfusion chamber with physiological salt solution (PSS) containing 2 mM Ca^2+. The chamber was mounted on an inverted epifluorescence microscope and signal measured with alternating excitation at 340 and 380 nm and emission at 510 nm using the InCa^2+-imaging system (Intracellular Imaging Systems, Cincinnati, OH). Data were acquired at 1.5 Hz and representative tracings were smoothed to the 10 nearest neighbor points using GraphPad Prism. For analysis, an increase in signal intensity of >1 standard deviation from baseline was considered a positive response. Frequency of responding cells was determined from an average 53±19 cells for each animal.

[2] = test system: AKI-primed CD4+ cells; test: In vitro stimulation of AKI-primed kidney CD4+ cells with Ang II and elevated Na+, IL17 response; type: cell-based, rat; details: inhibitor 10 μM; Ang II 10^-7 M and 170 mM Na+; 12-14 hours; cells 7 days post I/R
Procedure: (§1) Total RNA was obtained from kidney using Trizol and the Zymogen RNA extraction kit and cDNA was prepared using MMLV enzyme (Invitrogen, Carlsburg, CA). Quantitative real time PCR (qPCR) using gene specific primers was performed using ABI 7500 (Applied Biosystems, Foster City, CA). mRNA values were calculated using 2^−ΔΔCt. Specific primers sequences for IL-6 (catalog #Rn01410330_m1), Kim-1 (#Rn00597703_m1) and IL17 (Rn01757168_m1) were purchased from ThermoFisher (Waltham, MA).
(§2) To evaluate protein expression of IL17 or Orai1, Orai2 or Orai3, cells were restimulated with PMA and ionomycin for 6 hours in the presence of monensin (Golgistop, 1 μg·ml, BD Biosciences) permeabilized with saponin ([…]) and stained with relevant antibody. Cells were scanned using flow cytometry (FACSCalibur, BD Biosciences, San Jose, CA) and scans were analyzed using Flowjo software (Tree Star, Ashland, OR).
CD4+T cells were isolated using the MACS Pan-T cell microbead separation kit (Miltenyl, Glabach, Germany). T cells were stimulated with plate bound anti-CD3 (precoated with 2 μg/mL) and soluble anti-CD28 (1 μg/mL). Cells (2.5×10^5 in 0.25 ml) were incubated 12-14 hours at 37° C. in RPMI medium supplemented with 10% FBS (Invitrogen) in a 48-well plate. Cells were challenged with Ang II (Sigma, 10^−7M) and raising the extracellular Na+ from 140 mM to 170 mM, using a 1 M NaCl solution. Calcium channel inhibitors 2ABP (10 μM, Sigma) AnCoA4 (10 μM, Millipore, Burlington, MA) and YM58483/BTP2 (10 μM) were included to evaluate effects on IL-17.

[3] = test system: progression of CKD induced by high-salt diet following recovery from I/R injury; test: AKI-to-CKD progression: unilateral I/R, contralateral nephrectomy and high salt diet in rats (Study III); type: in vivo, rat
From the text: Study III was designed to investigate SOCE on progression of CKD induced by high-salt diet following recovery from I/R injury using a model of AKI-to-CKD described previously. Rats acclimated to a standard diet (AIN 76A, Dyets, Bethlehem, PA) containing 0.4% NaCl were subjected to left unilateral I/R or sham surgery and allowed to recover for ˜5 weeks. Rats were then subjected to right unilateral nephrectomy and subsequently exposed to elevated dietary Na+ (AIN76A plus 4% NaCl) for an additional 4 weeks (FIG. 9). Sham-control rats were not subjected to renal pedicle clamping, but were subjected to unilateral nephrectomy. Simultaneous with exposure to high salt diet, rats were randomly assigned to vehicle or YM58483 treatment (1mg·kg^−1·day^−1; p.o.). At the end of all studies, rats were deeply anesthetized with 50-100 mg/kg pentobarbital (Fatal Plus, Vortech, Dearborn, MI) and kidneys harvested for analysis.
To measure creatinine, tail blood was collected in heparin containing tubes and centrifuged to collect plasma. Plasma creatinine was measured using a Pointe Scientific Analyzer and Creatinine Assay reagents using methods outlined by the manufacturer (Pointe Scientific, Canton MI). Urine was collected for 24 hours by placing rats in metabolic cages and urine volume was determined gravimetrically. Urine creatinine was measured using a colorimetric assay adopted for microplate readers. Creatinine clearance was measured using UCr*V/PCr.
At the time of tissue harvest, kidneys were bisected and one half was fixed by immersion in 10% formalin, embedded in paraffin and 5 μm sections stained with picrosirus red to assess fibrosis. For quantitative analysis, five random images of renal outer medulla were obtained using Leica DMLB (Scientific Instruments, Columbus, OH) microscope with a 20× objective. The percent area of picrosirus red stain was scored in a blinded fashion using Image J (NIH).
as §1
Freshly harvested kidneys were minced and digested in liberase (2 μg/ml. Roche, Indianapolis IN) for 15 min at 37° C. using Gentle MACs (Miltenyli, San Diego, CA). The digested tissue was filtered through a 100-μm mesh and washed with RPMI containing 10% fetal bovine serum (Invitrogen). Mononuclear cells were isolated using Percol (Sigma) density gradient centrifugation.
as §2
Study III was designed to investigate SOCE on progression of CKD induced by high-salt diet following recovery from I/R injury using a model of AKI-to-CKD described previously. Rats acclimated to a standard dict (AIN 76A, Dyets, Bethlehem, PA) containing 0.4% NaCl were subjected left unilateral I/R or sham surgery and allowed to recover for ˜5 weeks. Rats were then subjected to right unilateral nephrectomy and subsequently exposed to elevated dietary Na+ (AIN76A plus 4% NaCl) for an additional 4 weeks (FIG. 9). Sham-control rats were not subjected to renal pedicle clamping, but were subjected to unilateral nephrectomy. Simultaneous with exposure to high salt dict, rats were randomly assigned to vehicle or YM58483 treatment (1 mg·kg−1·day−1; p.o.). […]

[4] = test system: human blood CD4+ cells; test: In vitro stimulation of human blood CD4+ cells from AKI patients with elevated sodium, IL17 response; type: cell-based; details: 170 mM Na+, overnight (~12 hours)
Procedure: For in vitro stimulation of human blood cells, primary T cells were isolated from fresh blood using Straight whole blood CD4 kit from Miltneyli Biotech (Miltenyli, San Diego, CA) according to manufactures' protocol. CD4+T cells were plated at a density of 1×10^6 cells/mL in RPMI medium supplemented with FBS. Cells were stimulated with human anti-CD3/CD28 dynabeads (Gibco; Catalogue no 11161D) along with labeled treatment overnight (˜12 hours). T cells were harvested and incubated with monensin for 6 hours, prior to staining for IL-17 (Table 4).

[5] = 1 mg/kg/day p.o. during 4 weeks high salt diet

Cc1nnsc1C(=O)Nc1ccc(-n2nc(C(F)(F)F)cc2C(F)(F)F)cc1 [YM58483/BPT2, N-[4-[3,5-Bis(trifluoromethyl)-1H-pyrazol-1-yl]phenyl]-4-methyl-1,2,3-thiadiazole-5-carboxamide]
percentage of Ca2+-responding cells [1]: significantly attenuated
increase in IL17+ cells (IL17 protein, FACS) [2]: completely blocked
increase of IL17 mRNA [2]: completely blocked
Kidney IL6 mRNA expression [3, 5]: significantly attenuated
expression of Kim-1 [3, 5]: significantly attenuated
increase in B cells [3, 5]: significantly attenuated
increase in MΦ/dendritic cells [3, 5]: significantly attenuated
increase in kidney CD4+ cells [3, 5]: significantly attenuated
increase in kidney CD8+ cells [3, 5]: significantly attenuated
increased expression (re-stimulation) of IL17+ cells [3, 5]: significantly attenuated
urinary albumin excretion [3, 5]: significantly attenuated
creatinine clearance (reduction relative to sham) ([3]; end of study, 9 weeks post I/R): significantly attenuated
development of interstitial fibrosis ([3]; picrosirius red, renal outer medulla): significantly attenuated
IL17 response to elevated extracellular sodium [4]: inhibited
